In the RepoRT retention time repository:
Structures can show the parent of a compound that is named as a salt.

Experiment: RP, Thermo Scientific Hypersil GOLD, 1.9 µm, 40 °C, 0.4 mL/min; A: water + 0.1% formic acid, pH 3; B: acetonitrile + 0.1% formic acid, pH 3; gradient (min/%B) 0/0 1/0 11/100 13/100 14/0 16/0
Settings: stereoisomer not certain

SMILES | LC retention time [min]
O=CCC(O)C(O)CO (stereo unspecified) | 0.82
CC(C)C(O)C(=O)O (stereo unspecified) | 4.13
O=C(O)CCCCC1CCSS1 (racemic) | 7.53
C#CC1(O)CCC2C3CCc4cc(O)ccc4C3CCC21C (racemic) | 8.17
CC(=O)NC(C(=O)O)C(C)C (racemic) [N-acetyl-DL-valine] | 4.62
Oc1cc(O)c2c(c1)OC(c1ccc(O)c(O)c1)C(O)C2 (single isomer, unassigned; (+)) [(+)-Catechin hydrate] | 4.73
O=C(OC1Cc2c(O)cc(O)cc2OC1c1cc(O)c(O)c(O)c1)c1cc(O)c(O)c(O)c1 (single isomer, unassigned; (-)) [(-)-Epigallocatechin gallate] | 5.05
CN1C2CC(OC(=O)C(CO)c3ccccc3)CC1C1OC12 (single isomer, unassigned; (-)) [(-)-Scopolamine hydrochloride] | 4.91
O=C(O)CC(=O)CC(=O)O [1-3-Acetonedicarboxylic acid] | 0.8
OCC1OCC(O)C(O)C1O [1-5-Anhydro-D-sorbitol] | 0.7
Cn1c(=O)[nH]c2[nH]c(=O)n(C)c2c1=O [1-7-Dimethyluric acid] | 4.27
O=C(O)c1ccc2ccccc2c1[O-] [1-HYDROXY-2-NAPHTHOATE] | 8.24
Cn1cnc2c(ncn2C2OC(CO)C(O)C2O)c1=N (stereo unspecified) [1-METHYLADENOSINE] | 3.82
Nc1cccc2ccccc12 [1-NAPHTHYLAMINE] | 5.87
CC(=O)c1ccc(O)cc1O [2'-4'-DIHYDROXYACETOPHENONE] | 6.1
O=C(O)c1cccc(O)c1O [2-3-DIHYDROXYBENZOATE] | 5.01
O=c1[nH]c(=O)c2nccnc2[nH]1 [2-4-DIHYDROXYPTERIDINE] | 0.96
O=C(O)c1ccc(O)cc1O [2-4-Dihydroxybenzoic acid] | 4.88
O=C(O)c1cc(O)ccc1O [2-5-DIHYDROXYBENZOATE] | 4.52
O=c1cccc(O)[nH]1 [2-6-DIHYDROXYPYRIDINE] | 1.09
O=C(O)c1c(O)cccc1O [2-6-Dihydroxybenzoic acid] | 5.12
O=c1ccc2cc(O)ccc2[nH]1 [2-6-quinolinediol] | 4.44
CC(=O)N[C@@H]1[C@@H](O)[C@H](O)[C@@H](CO)O[C@H]1N [2-ACETAMIDO-2-DEOXY-BETA-D-GLUCOSYLAMINE] | 0.6
Nc1ccccc1O [2-AMINOPHENOL] | 0.9

Results, then the molecule that gave them:

LC retention time [min] | SMILES
0.61 | CC(N)(Cc1cnc[nH]1)C(=O)O (racemic) [Alpha-methyl-DL-histidine dihydrochloride]
1.14 | [NH3+]C(C(=O)[O-])C(O)c1ccccc1 (racemic) [L-Threo-3-Phenylserine (DL-3-Phenylserine)]
6.38 | O=C(O)CC(Cc1ccccc1)C(=O)O (racemic) [dl-benzylsuccinic acid]
0.64 | NC1(C(=O)O)CC1 [1-AMINOCYCLOPROPANECARBOXYLATE]
0.59 | Cn1cnc(C[C@H](N)C(=O)O)c1 [1-METHYL-L-HISTIDINE]
0.63 | C[n+]1cccc(C(N)=O)c1 [1-METHYLNICOTINAMIDE]
3.73 | COC1C(O)C(CO)OC1n1cnc2c(=O)[nH]cnc21 (stereo unspecified) [2'-O-Methylinosine]
5.21 | CC(C)(CCC(=O)O)C(=O)O [2-2-Dimethylglutaric acid]
4.85 | CC(C)(CC(=O)O)C(=O)O [2-2-Dimethylsuccinic acid]
0.67 | CC(C)(N)C(=O)O [2-AMINOISOBUTYRATE]
0.81 | Nc1ncccc1C(=O)O [2-Aminopyridine-3-carboxylic acid]
4.21 | CSCCC(O)C(=O)O (stereo unspecified) [2-HYDROXY-4-(METHYLTHIO)BUTANOATE]
